Source: patent US20170042890A1, “METHODS OF REDUCING DECLINE IN VITAL CAPACITY” (Cytokinetics, Inc., priority 2014, published 2017)

Columns and labels:
[1] = system: muscle contraction / grip strength; conditions: cited from earlier work
[2] = system: fast skeletal muscle troponin complex; conditions: cited from earlier work
cardiac muscle troponin = conditions: cited from earlier work
patients with ALS [3] = experiment: BENEFIT-ALS clinical trial: slow vital capacity (SVC); format: in vivo, human
Description: (§1) BENEFIT-ALS was a multi-national, randomized, stratified, double-blind, placebo-controlled, parallel-group study of tirasemtiv in patients with ALS. The study consisted of a screening period, an open-label/lead-in period, and a double-blind treatment period. Following screening, eligible patients received open-label tirasemtiv, 125 mg BID, for 7 days. Patients who tolerated the 7-day lead-in period were randomized in a 1:1 ratio to tirasemtiv or placebo. Over the first 3 weeks of double-blind treatment, patients randomized to tirasemtiv had their TDD up-titrated as follows: 250 mg for 7 days, then 375 mg for 7 days, then 500 mg for 7 days. […] However, in such cases, dose escalation was re-attempted at least one additional time. The highest tolerable tirasemtiv dose for each individual patient was the dose that patient received for the remaining 9 weeks (i.e., the maximum tolerated dose [MTD] phase) of the study. Patients randomized to placebo underwent a corresponding dummy dose titration.
Randomization was stratified by riluzole use. […] Clinical assessments occurred every 4 weeks during double-blind treatment; patients also returned for follow-up evaluations at 1 and 4 weeks after their final dose of double-blind study medication (FIG. 1).
The secondary objectives included assessments of the effect of tirasemtiv versus placebo on measures of respiratory function (Maximum Voluntary Ventilation (MVV), Sniff Nasal Inspiratory Pressure (SNIP), SVC) and skeletal muscle function including handgrip fatigue and muscle-strength mega-score (i.e., the average z-score for muscle strength measurements across the following tested bilateral muscle groups: elbow flexion, wrist extension, knee extension, ankle dorsiflexion, and handgrip)). Secondary endpoints included the changes from baseline in each of the above mentioned measures (MVV, SNIP, SVC, and muscle-strength mega-score) for the Modified FAS, and the slope of each of the measures from baseline to Week 12 for the Modified FAS.
Eligible patients were males and females, 18 years of age and older, with a diagnosis of familial or sporadic ALS and meeting the World Federation of Neurology El Escorial criteria of definite ALS, probable ALS, laboratory-supported probable ALS, or possible ALS. Patients were to have an upright SVC>50% of predicted for age, height, and sex, a diminished, but measurable, maximum voluntary grip strength in at least one hand (i.e., between 10-50 pounds for females and 10-70 pounds for males), and at least 4 of the 12 ALSFRS-R questions were to have been scored as a 2 or 3. Patients were to be able to swallow tablets without crushing, and in the opinion of the investigator, were expected to do so for the duration of the study. If the patient needed a caregiver, the caregiver was to be able to observe the patient's status. Clinical laboratory results were to be either within their respective normal ranges or if outside the normal range, deemed not clinically significant by the investigator. […] Patients not taking riluzole prior to study entry were not permitted to take riluzole at any dose during the course of the study.
Safety data presented were based on the safety analysis set, defined as all patients who received at least 1 dose of double-blind study drug. Of the 605 randomized patients, 596 (295 placebo, 301 tirasemtiv) received at least 1 dose of double-blind study drug and were included in the safety analysis set. Data for the primary and secondary efficacy endpoints were analyzed with the Modified FAS. This analysis set included all patients who received at least 1 dose of double-blind study drug and had at least 1 efficacy assessment during the double-blind treatment period, and excluded 156 patients who were randomized in blocks containing patients affected by a study drug assignment error in which 58 patients randomized to and treated with double-blind tirasemtiv were dispensed double-blind placebo instead. […]

patients with ALS [4] = experiment: BENEFIT-ALS clinical trial: ALSFRS-R total score; format: in vivo, human; conditions: Modified FAS
Description: as §1
Randomization was stratified by riluzole use. […] Clinical assessments occurred every 4 weeks during double-blind treatment; patients also returned for follow-up evaluations at 1 and 4 weeks after their final dose of double-blind study medication (FIG. 1). […]
Eligible patients were males and females, 18 years of age and older, with a diagnosis of familial or sporadic ALS and meeting the World Federation of Neurology El Escorial criteria of definite ALS, probable ALS, laboratory-supported probable ALS, or possible ALS. Patients were to have an upright SVC>50% of predicted for age, height, and sex, a diminished, but measurable, maximum voluntary grip strength in at least one hand (i.e., between 10-50 pounds for females and 10-70 pounds for males), and at least 4 of the 12 ALSFRS-R questions were to have been scored as a 2 or 3. […]
Safety data presented were based on the safety analysis set, defined as all patients who received at least 1 dose of double-blind study drug. […] Data for the primary and secondary efficacy endpoints were analyzed with the Modified FAS. […]

C#Cc1cnc2nc(O)n(C(CC)CC)c2n1 [Tirasemtiv, 6-ethynyl-1-(pentan-3-yl)-1H-imidazo[4,5-b]pyrazin-2(3H)one]
Grip strength ([1]; preclinical models of limited neuromuscular input): increased grip strength | Force of muscle contraction ([1]; submaximal nerve stimulation frequencies): increased the force of muscle contraction | Activity on fast skeletal muscle troponin complex [2]: highly selective activator | Rate of calcium release from fast skeletal TnC [2]: slows the rate of calcium release | Effect on cardiac muscle troponin (cardiac muscle troponin): no effect | SVC slope of changes from baseline to Week 12 (patients with ALS [3]; Modified FAS N=178): −0.0394 | SVC change from baseline (LS mean) (patients with ALS [3]; Week 4, Modified FAS N=178): −0.99 % predicted | SVC change from baseline (LS mean) (patients with ALS [3]; Week 8, Modified FAS N=178): −2.85 % predicted | SVC change from baseline (LS mean) (patients with ALS [3]; Week 12, Modified FAS N=178): −3.12 % predicted | SVC change from baseline (LS mean), post-treatment (patients with ALS [3]; Week 13, 1 week after last dose of double-blind study drug): −3.75 % predicted | SVC change from baseline (LS mean), post-treatment (patients with ALS [3]; Week 16, 4 weeks after last dose of double-blind study drug): −5.39 % predicted | LS mean±SE change from baseline in SVC (patients with ALS [3]; after 12 weeks of treatment): −3.12% | SVC difference in slope (tirasemtiv vs placebo) (patients with ALS [3]; baseline to Week 12, p=0.0006): 0.051 | Treatment difference in change from baseline to average SVC after 8 and 12 weeks (patients with ALS [3]; subgroup: baseline SVC>median at baseline, p<0.0001): 6.02% | Treatment difference in change from baseline to average SVC after 8 and 12 weeks (patients with ALS [3]; subgroup: females, p=0.012): 6.84% | Treatment difference in change from baseline to average SVC after 8 and 12 weeks (patients with ALS [3]; subgroup: non-riluzole users, p=0.0005): 6.55% | Effect on decline of SVC, in words (patients with ALS [3]; versus placebo): statistically significant and potentially clinically meaningful reduction in the decline of SVC | ALSFRS total score change versus placebo, in words (patients with ALS [4]; Visits 6 and 7): not statistically different between treatment groups | LS mean±SE difference between treatment groups (tirasemtiv response minus placebo response) in ALSFRS total score change (patients with ALS [4]; Visits 6 and 7, 95% CI −1.30, 0.14, p=0.114): −0.58±0.366 | LS mean change from baseline to the average of ALSFRS total score at Visits 6 and 7 (patients with ALS [4]; after approx. 8 and 12 weeks double-blind, tirasemtiv BID up to 500 mg/day): −2.98
